Test results reported in ChEMBL document CHEMBL4184320, “Optimization of Selective Mitogen-Activated Protein Kinase Interacting Kinases 1 and 2 Inhibitors for the Treatment of Blast Crisis Leukemia” (J Med Chem, 2018).
Values after ≈ are worked out from the molar mass of the structure shown.

Tests used:
[1] = target: MAP kinase-interacting serine/threonine-protein kinase 1 (Homo sapiens, UniProt Q9BUB5)
Description: Inhibition of GST-tagged MNK1 (37 to 341 residues) (unknown origin) expressed in Escherichia coli BL21(DE3) using JH3 peptide as substrate preincubated for 10 mins followed by substrate and ATP addition measured after 60 mins

[2] = target: MAP kinase-interacting serine/threonine-protein kinase 2 (Homo sapiens, UniProt Q9HBH9)
Description: Inhibition of GST-tagged MNK2 (72 to 385 residues) (unknown origin) expressed in Escherichia coli BL21(DE3) using JH3 peptide as substrate preincubated for 10 mins followed by substrate and ATP addition measured after 60 mins

[3] = target: MAP kinase-interacting serine/threonine-protein kinase 1/2 (Homo sapiens, UniProt Q9HBH9+Q9BUB5); experiment: Inhibition of MNK1/2 in human HeLa cells assessed as decrease in eIF4E phosphorylation at Ser209 after 2 hrs by AlphaScreen assay; assay type: cell-based
[4] = Octanol-phosphate buffer partition coefficient, logD of compound at pH 7.4 by HPLC-UV analysis; assay type: physicochemical
[5] = Permeability of the compound by PAMPA; assay type: ADME; details: read-out: permeability
[6] = Thermodynamic solubility of the compound at pH 4 to 7.4 pION buffer after 18 hrs by UV spectrophotometric analysis; assay type: physicochemical; details: read-out: Therm_solubility
Cytochrome P450 2D6 = Cytochrome P450 2D6 (Homo sapiens, UniProt P10635); experiment: Inhibition of CYP2D6 in human liver microsomes using dextromethorphan as substrate preincubated for 5 mins followed by NADPH addition by LC-MS/MS analysis; assay type: ADME
[7] = Apparent permeability of the compound across apical side to basolateral side in human Caco2 cells by LC-MS/MS analysis; assay type: ADME, cell-based; details: Caco-2
[8] = Efflux ratio of apparent permeability in human Caco2 cells by LC-MS/MS analysis; assay type: ADME, cell-based; details: Caco-2
Cytochrome P450 3A4 = Cytochrome P450 3A4 (Homo sapiens, UniProt P08684)
Description: Inhibition of CYP3A4 in human liver microsomes using midazolam as substrate preincubated for 5 mins followed by NADPH addition measured after 5 mins by LC-MS/MS analysis

in vitro [9] = details: human, liver microsomes
Description: Half life in human liver microsomes at 1 uM in presence of NADPH by LC-MS/MS analysis

in vitro [10] = details: mouse, liver microsomes
Description: Half life in mouse liver microsomes at 1 uM in presence of NADPH by LC-MS/MS analysis

[11] = AUClast in CD-1 mouse at 5 mg/kg, po administered via gavage as single dose by LC-MS/MS analysis; assay type: ADME, organism-based; parameters: dose 5 mg/kg, time 0 - last, route oral; details: in vivo
[12] = Cmax in CD-1 mouse at 5 mg/kg, po administered via gavage as single dose by LC-MS/MS analysis; assay type: ADME, organism-based; parameters: dose 5 mg/kg, route oral; details: in vivo
[13] = Protein binding in human plasma at […] after 5 hrs by LC-MS/MS analysis; assay type: ADME, cell-free; details: read-out: PPB (converted)
[14] = Protein binding in mouse plasma at […] after 5 hrs by LC-MS/MS analysis; assay type: ADME, cell-free; details: read-out: PPB (converted)
[15] = target: Dual specificity mitogen-activated protein kinase kinase; MEK1/2 (Homo sapiens) (UniProt P36507+Q02750); experiment: Inhibition of MEK (unknown origin) at 1 uM by KINOMEscan assay relative to control; assay type: protein assay
[16] = tested on: Tyrosine-protein kinase ABL1 (Homo sapiens), P00519 [E255K]; experiment: Inhibition of human ABL1 E255K mutant (S229 to K512 residues) expressed in mammalian expression system at 1 uM by KINOMEscan assay relative to control
[17] = target: Tyrosine-protein kinase ABL1 (Homo sapiens) (UniProt P00519); experiment: Inhibition of human ABL1 (S229 to K512 residues) expressed in mammalian expression system at 1 uM by KINOMEscan assay relative to control
[18] = target: Dual specificity mitogen-activated protein kinase kinase 1 (Homo sapiens) (UniProt Q02750); experiment: Inhibition of human MEK1 (M1 to V393 residues) expressed in mammalian expression system at 1 uM by KINOMEscan assay relative to control
[19] = target: Dual specificity mitogen-activated protein kinase kinase 2 (Homo sapiens) (UniProt P36507); experiment: Inhibition of human MEK2 (M1 to V400 residues) expressed in mammalian expression system at 1 uM by KINOMEscan assay relative to control
[20] = target: Proto-oncogene tyrosine-protein kinase receptor Ret (Homo sapiens) (UniProt P07949); experiment: Inhibition of human RET (E713 to D1014 residues) expressed in bacterial expression system at 1 uM by KINOMEscan assay relative to control
Proto-oncogene tyrosine-protein kinase receptor Ret (Homo sapiens), sequence (P07949 whole entry, the tested form may be a part): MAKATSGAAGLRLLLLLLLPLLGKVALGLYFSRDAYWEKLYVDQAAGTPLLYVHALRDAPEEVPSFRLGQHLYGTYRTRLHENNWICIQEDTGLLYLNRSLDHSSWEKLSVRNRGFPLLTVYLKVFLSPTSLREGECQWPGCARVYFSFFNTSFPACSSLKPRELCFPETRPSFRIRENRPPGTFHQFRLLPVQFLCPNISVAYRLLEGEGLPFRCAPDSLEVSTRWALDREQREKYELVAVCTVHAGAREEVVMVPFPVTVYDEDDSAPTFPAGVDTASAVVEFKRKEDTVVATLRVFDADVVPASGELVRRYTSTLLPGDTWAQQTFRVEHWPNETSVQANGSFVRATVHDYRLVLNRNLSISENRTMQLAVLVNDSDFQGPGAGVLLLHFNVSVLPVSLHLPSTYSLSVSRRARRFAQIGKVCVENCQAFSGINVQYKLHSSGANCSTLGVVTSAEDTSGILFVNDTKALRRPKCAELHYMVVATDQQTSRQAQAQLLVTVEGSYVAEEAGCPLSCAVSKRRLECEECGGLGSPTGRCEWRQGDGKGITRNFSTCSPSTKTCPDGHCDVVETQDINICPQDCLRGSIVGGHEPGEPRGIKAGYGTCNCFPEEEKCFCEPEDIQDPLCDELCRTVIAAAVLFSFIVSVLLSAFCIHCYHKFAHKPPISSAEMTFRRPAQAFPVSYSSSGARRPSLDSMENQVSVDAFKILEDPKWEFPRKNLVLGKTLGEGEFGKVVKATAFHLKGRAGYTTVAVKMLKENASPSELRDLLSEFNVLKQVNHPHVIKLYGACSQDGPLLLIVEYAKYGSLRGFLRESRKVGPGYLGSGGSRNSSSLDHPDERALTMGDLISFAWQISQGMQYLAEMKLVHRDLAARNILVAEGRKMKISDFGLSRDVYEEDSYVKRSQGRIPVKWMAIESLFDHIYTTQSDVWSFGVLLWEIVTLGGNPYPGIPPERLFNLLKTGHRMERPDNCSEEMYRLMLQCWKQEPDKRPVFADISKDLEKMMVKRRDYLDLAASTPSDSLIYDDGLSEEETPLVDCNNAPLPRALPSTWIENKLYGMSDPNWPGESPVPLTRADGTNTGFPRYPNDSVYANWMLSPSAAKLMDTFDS

Cytochrome P450 2D6, sequence (P10635 whole entry): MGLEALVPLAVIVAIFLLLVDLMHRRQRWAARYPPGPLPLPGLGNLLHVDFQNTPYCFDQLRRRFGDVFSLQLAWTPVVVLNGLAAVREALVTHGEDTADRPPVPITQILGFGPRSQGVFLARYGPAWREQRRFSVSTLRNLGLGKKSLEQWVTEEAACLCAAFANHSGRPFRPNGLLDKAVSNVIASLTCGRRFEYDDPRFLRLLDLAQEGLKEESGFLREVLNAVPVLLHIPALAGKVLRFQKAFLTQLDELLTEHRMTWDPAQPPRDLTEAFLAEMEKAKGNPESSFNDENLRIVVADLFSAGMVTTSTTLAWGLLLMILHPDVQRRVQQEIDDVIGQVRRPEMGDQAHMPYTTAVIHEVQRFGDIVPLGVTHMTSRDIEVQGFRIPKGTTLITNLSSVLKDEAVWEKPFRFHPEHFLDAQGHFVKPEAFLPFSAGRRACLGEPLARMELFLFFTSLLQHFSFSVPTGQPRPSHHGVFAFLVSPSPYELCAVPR
MAP kinase-interacting serine/threonine-protein kinase 2, sequence (Q9HBH9 whole entry): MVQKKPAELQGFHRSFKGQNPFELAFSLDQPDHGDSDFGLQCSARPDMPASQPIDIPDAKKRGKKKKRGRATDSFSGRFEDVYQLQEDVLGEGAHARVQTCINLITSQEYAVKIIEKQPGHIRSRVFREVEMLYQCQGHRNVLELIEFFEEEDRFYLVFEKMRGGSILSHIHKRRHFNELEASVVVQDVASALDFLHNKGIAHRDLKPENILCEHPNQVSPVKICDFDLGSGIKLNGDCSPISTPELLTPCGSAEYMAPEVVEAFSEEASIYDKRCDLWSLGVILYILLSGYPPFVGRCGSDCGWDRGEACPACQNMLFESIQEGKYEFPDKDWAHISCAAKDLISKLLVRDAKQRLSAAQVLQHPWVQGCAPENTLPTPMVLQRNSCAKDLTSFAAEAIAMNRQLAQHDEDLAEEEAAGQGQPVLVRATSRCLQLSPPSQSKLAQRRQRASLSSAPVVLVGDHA
MAP kinase-interacting serine/threonine-protein kinase 1, sequence (Q9BUB5 whole entry): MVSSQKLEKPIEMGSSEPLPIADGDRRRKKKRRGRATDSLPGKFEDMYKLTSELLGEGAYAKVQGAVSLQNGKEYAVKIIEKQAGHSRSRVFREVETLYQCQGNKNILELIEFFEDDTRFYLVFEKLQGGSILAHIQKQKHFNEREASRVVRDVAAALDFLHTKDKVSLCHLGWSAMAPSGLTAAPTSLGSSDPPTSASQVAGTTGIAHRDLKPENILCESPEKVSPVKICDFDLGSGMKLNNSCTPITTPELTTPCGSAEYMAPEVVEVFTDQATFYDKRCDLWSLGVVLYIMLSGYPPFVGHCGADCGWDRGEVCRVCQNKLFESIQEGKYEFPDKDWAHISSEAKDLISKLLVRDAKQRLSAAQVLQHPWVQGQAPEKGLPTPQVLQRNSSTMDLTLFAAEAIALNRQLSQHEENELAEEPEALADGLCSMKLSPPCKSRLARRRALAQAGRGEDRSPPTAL
Cytochrome P450 3A4, sequence (P08684 whole entry): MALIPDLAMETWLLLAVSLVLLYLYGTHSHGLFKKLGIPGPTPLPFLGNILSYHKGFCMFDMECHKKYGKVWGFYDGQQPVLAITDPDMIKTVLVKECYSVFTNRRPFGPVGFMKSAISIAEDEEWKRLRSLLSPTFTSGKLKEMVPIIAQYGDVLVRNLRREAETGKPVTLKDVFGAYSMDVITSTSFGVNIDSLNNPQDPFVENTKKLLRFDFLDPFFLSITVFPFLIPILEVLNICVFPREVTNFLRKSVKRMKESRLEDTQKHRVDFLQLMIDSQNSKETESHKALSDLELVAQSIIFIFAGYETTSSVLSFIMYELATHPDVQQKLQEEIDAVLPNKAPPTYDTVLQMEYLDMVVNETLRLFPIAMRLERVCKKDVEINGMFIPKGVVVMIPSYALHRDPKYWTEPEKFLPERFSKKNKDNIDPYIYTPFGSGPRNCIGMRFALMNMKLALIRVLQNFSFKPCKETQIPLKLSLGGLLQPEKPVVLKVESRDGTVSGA
Dual specificity mitogen-activated protein kinase kinase; MEK1/2 (Homo sapiens), sequence (P36507 whole entry, looked up, the tested form may be a part): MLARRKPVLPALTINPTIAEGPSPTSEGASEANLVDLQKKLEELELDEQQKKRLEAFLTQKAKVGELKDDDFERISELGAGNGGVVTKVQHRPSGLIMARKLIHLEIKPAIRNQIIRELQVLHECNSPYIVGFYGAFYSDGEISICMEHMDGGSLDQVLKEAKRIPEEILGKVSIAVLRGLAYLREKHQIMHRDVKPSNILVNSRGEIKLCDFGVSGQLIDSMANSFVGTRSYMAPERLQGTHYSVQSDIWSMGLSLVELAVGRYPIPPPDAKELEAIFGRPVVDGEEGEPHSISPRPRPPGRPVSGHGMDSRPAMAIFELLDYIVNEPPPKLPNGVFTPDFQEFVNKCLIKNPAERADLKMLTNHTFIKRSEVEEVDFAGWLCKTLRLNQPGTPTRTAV
Dual specificity mitogen-activated protein kinase kinase; MEK1/2 (Homo sapiens), sequence (Q02750 whole entry, looked up, the tested form may be a part): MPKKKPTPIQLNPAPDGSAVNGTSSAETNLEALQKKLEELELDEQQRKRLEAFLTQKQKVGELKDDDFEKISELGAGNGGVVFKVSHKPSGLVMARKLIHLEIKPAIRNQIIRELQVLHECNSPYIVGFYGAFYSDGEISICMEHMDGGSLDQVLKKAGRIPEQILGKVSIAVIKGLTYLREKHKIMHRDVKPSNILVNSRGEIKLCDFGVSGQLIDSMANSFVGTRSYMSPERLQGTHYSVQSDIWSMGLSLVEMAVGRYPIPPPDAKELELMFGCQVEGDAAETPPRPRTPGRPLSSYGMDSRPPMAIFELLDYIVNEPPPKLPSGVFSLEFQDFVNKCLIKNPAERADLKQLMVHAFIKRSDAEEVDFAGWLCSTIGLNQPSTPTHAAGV
Dual specificity mitogen-activated protein kinase kinase 2 (Homo sapiens), sequence (P36507 whole entry, the tested form may be a part): as the sequence (P36507 whole entry, looked up, the tested form may be a part) above
Dual specificity mitogen-activated protein kinase kinase 1 (Homo sapiens), sequence (Q02750 whole entry, the tested form may be a part): as the sequence (Q02750 whole entry, looked up, the tested form may be a part) above

SMILES: CN1CCN(C(=O)c2ccc(-c3cn4c(-c5ccc(C(=O)NO)cc5)cnc4cn3)cc2)CC1
- IC50 [1]: 0.06 µM
- IC50 [2]: 0.031 µM
- IC50 [3]: > 2.5 µM

SMILES: CN1CCN(C(=O)c2ccc(-c3cn4c(-c5ccccc5O)cnc4cn3)cc2)CC1
- IC50 [1]: 9.5 µM
- IC50 [2]: 5.17 µM

SMILES: CN1CCN(C(=O)c2ccc(-c3cn4c(-c5ccc(C(F)(F)F)cc5)cnc4cn3)cc2)CC1
- IC50 [1]: 0.574 µM
- IC50 [2]: 0.389 µM
- IC50 [3]: 1.99 µM
- logD [4]: 2.95
- Papp [5]: 874 nm/s
- solubility thermodynamic at 18 h [6]: 0.0904 mg/mL (≈ 194 µM)

SMILES: N#Cc1ccc(-c2cnc3cnc(-c4ccc(C(=O)N5CCOCC5)cc4)cn23)cc1
- IC50 [1]: 0.57 µM
- IC50 [2]: 0.454 µM
- IC50 [3]: 0.748 µM
- logD [4]: 1.77
- Papp [5]: 431 nm/s
- IC50 (Cytochrome P450 2D6): > 20 µM
- solubility thermodynamic at 18 h [6]: 0.0111 mg/mL (≈ 27.1 µM)
- Papp A→B [7]: 179 nm/s
- efflux ratio [8]: 1.73
- IC50 (Cytochrome P450 3A4): > 20 µM
- half-life at 1 µM (in vitro [9]): > 60 min
- half-life at 1 µM (in vitro [10]): > 60 min

SMILES: CN1CCN(C(=O)c2ccc(-c3cn4c(-c5ccc(O)cc5)cnc4cn3)cc2)CC1
- IC50 [1]: 0.284 µM
- IC50 [2]: 0.14 µM
- IC50 [3]: 0.189 µM
- logD [4]: 2.25
- Papp [5]: 347 nm/s
- solubility thermodynamic at 18 h [6]: 0.114 mg/mL (≈ 276 µM)

SMILES: CN1CCN(C(=O)c2ccc(-c3cn4c(-c5ccc(Cl)cc5)cnc4cn3)cc2)CC1
- IC50 [1]: 0.331 µM
- IC50 [2]: 0.217 µM
- IC50 [3]: 0.759 µM
- logD [4]: 2.96
- Papp [5]: 713 nm/s
- solubility thermodynamic at 18 h [6]: 0.118 mg/mL (≈ 273 µM)

SMILES: CC(=O)N1CCN(C(=O)c2ccc(-c3cn4c(-c5ccc(O)cc5)cnc4cn3)cc2)CC1
- IC50 [1]: 0.224 µM
- IC50 [2]: 0.16 µM
- IC50 [3]: > 2.5 µM
- logD [4]: 1.68
- Papp [5]: 28.2 nm/s
- solubility thermodynamic at 18 h [6]: 0.144 mg/mL (≈ 326 µM)

SMILES: CN(C)C1CCN(C(=O)c2ccc(-c3ccc4ncc(-c5ccc(C#N)cc5)n4n3)cc2)CC1
- IC50 [1]: 0.009 µM
- IC50 [2]: 0.011 µM
- IC50 [3]: 0.431 µM
- logD [4]: 2.19
- Papp [5]: 753 nm/s
- solubility thermodynamic at 18 h [6]: 0.148 mg/mL (≈ 328 µM)
- Papp A→B [7]: 30 nm/s
- efflux ratio [8]: 13.3
- AUC(0-t) [11]: 0.347 µg·h/mL
- Cmax [12]: 0.069 µg/mL
- half-life at 1 µM (in vitro [9]): 47 min
- half-life at 1 µM (in vitro [10]): > 60 min

SMILES: Cc1ccc(-c2cnc3cnc(-c4ccc(C(=O)N5CCN(C)CC5)cc4)cn23)cc1
- IC50 [1]: 0.6 µM
- IC50 [2]: 0.41 µM
- IC50 [3]: 1.21 µM

SMILES: Oc1ccc(-c2cnc3cnc(-c4ccccc4)cn23)cc1
- IC50 [1]: 0.528 µM
- IC50 [2]: 0.415 µM
- IC50 [3]: 0.819 µM

SMILES: CC(=O)Nc1cn2c(-c3ccc(O)cc3)cnc2cn1
- IC50 [1]: 0.789 µM
- IC50 [2]: 0.515 µM
- IC50 [3]: > 2.5 µM

SMILES: CN(C)C1CCN(C(=O)c2ccc(-c3cn4c(-c5ccc(C#N)cc5)cnc4cn3)cc2)CC1
- IC50 [1]: 0.238 µM
- IC50 [2]: 0.143 µM
- IC50 [3]: 0.64 µM
- logD [4]: 0.73
- Papp [5]: 647 nm/s
- IC50 (Cytochrome P450 2D6): > 20 µM
- solubility thermodynamic at 18 h [6]: > 0.045 mg/mL
- Papp A→B [7]: 11.4 nm/s
- efflux ratio [8]: 7.57
- IC50 (Cytochrome P450 3A4): > 20 µM
- half-life at 1 µM (in vitro [9]): > 60 min
- half-life at 1 µM (in vitro [10]): > 60 min

SMILES: CN1CCN(C(=O)c2ccc(-c3ccc4ncc(-c5ccc(C#N)cc5)n4n3)cc2)CC1
- IC50 [1]: 0.02 µM
- IC50 [2]: 0.025 µM
- IC50 [3]: 0.326 µM
- logD [4]: 2.82
- Papp [5]: 250 nm/s
- IC50 (Cytochrome P450 2D6): > 20 µM
- solubility thermodynamic at 18 h [6]: 0.086 mg/mL (≈ 204 µM)
- Papp A→B [7]: 146 nm/s
- efflux ratio [8]: 4.84
- fraction unbound at 5 h [13]: 0.001
- fraction unbound at 5 h [14]: 0.041
- IC50 (Cytochrome P450 3A4): > 20 µM
- half-life at 1 µM (in vitro [9]): 17 min
- half-life at 1 µM (in vitro [10]): 23 min

SMILES: CN1CCN(C(=O)c2ccc(-c3cn4c(-c5ccc(C(F)F)cc5)cnc4cn3)cc2)CC1
- IC50 [1]: 0.369 µM
- IC50 [2]: 0.336 µM
- IC50 [3]: 1.63 µM
- logD [4]: 2.55
- Papp [5]: 762 nm/s
- solubility thermodynamic at 18 h [6]: 0.0669 mg/mL (≈ 150 µM)

SMILES: CN1CCN(C(=O)c2ccc(-c3cn4c(-c5ccccc5)cnc4cn3)cc2)CC1
- IC50 [1]: 2.68 µM
- IC50 [2]: 1.43 µM
- IC50 [3]: 1.92 µM

SMILES: CN1CCN(C(=O)c2ccc(-c3cn4c(-c5cccc(O)c5)cnc4cn3)cc2)CC1
- IC50 [1]: 1.3 µM
- IC50 [2]: 0.742 µM
- IC50 [3]: 1.33 µM
- logD [4]: 2.31
- Papp [5]: 332 nm/s
- solubility thermodynamic at 18 h [6]: 0.116 mg/mL (≈ 281 µM)

SMILES: CN1CCN(C(=O)c2ccc(-c3cn4c(-c5ccc(C(N)=O)cc5)cnc4cn3)cc2)CC1
- IC50 [1]: 0.294 µM
- IC50 [2]: 0.187 µM
- IC50 [3]: > 2.5 µM
- logD [4]: 0.98
- Papp [5]: 17.8 nm/s
- solubility thermodynamic at 18 h [6]: 0.126 mg/mL (≈ 286 µM)

SMILES: CN1CCN(C(=O)c2ccc(-c3cn4c(-c5ccc(C(=O)O)cc5)cnc4cn3)cc2)CC1
- IC50 [1]: 0.7 µM
- IC50 [2]: 0.355 µM
- IC50 [3]: > 2.5 µM
- logD [4]: -1.37
- Papp [5]: 1 nm/s
- solubility thermodynamic at 18 h [6]: > 0.022 mg/mL

SMILES: Nc1ncnc2[nH]nc(Nc3ccc(F)cc3)c12
- inhibition [15]: > 99%
- inhibition [16]: > 99%
- inhibition [17]: > 99%
- inhibition [18]: > 99%
- inhibition [19]: > 99%
- inhibition [20]: > 99%

SMILES: O=C(Nc1cn2c(-c3ccc(O)cc3)cnc2cn1)c1ccccc1
- IC50 [1]: 3.35 µM
- IC50 [2]: 1.08 µM

SMILES: NC(=O)c1ccc(-c2cn3c(-c4ccc(O)cc4)cnc3cn2)cc1
- IC50 [1]: 0.31 µM
- IC50 [2]: 0.193 µM
- IC50 [3]: 1.08 µM
- logD [4]: 2.03
- Papp [5]: 227 nm/s
- IC50 (Cytochrome P450 2D6): > 20 µM
- IC50 (Cytochrome P450 3A4): > 20 µM
- half-life at 1 µM (in vitro [9]): 60 min
- half-life at 1 µM (in vitro [10]): 46 min

SMILES: CN1CCN(C(=O)c2ccc(-c3ccc4ncc(-c5ccc(C#N)cc5)n4c3)cc2)CC1
- IC50 [1]: 0.084 µM
- IC50 [2]: 0.072 µM
- IC50 [3]: 0.229 µM
- logD [4]: 2.48
- Papp [5]: 819 nm/s
- IC50 (Cytochrome P450 2D6): > 20 µM
- solubility thermodynamic at 18 h [6]: 0.137 mg/mL (≈ 325 µM)
- Papp A→B [7]: 54.3 nm/s
- efflux ratio [8]: 4.84
- fraction unbound at 5 h [13]: 0.003
- fraction unbound at 5 h [14]: 0.0967
- IC50 (Cytochrome P450 3A4): 3.9 µM
- half-life at 1 µM (in vitro [9]): 20 min
- half-life at 1 µM (in vitro [10]): 11 min

SMILES: O=C(c1ccc(-c2cn3c(-c4ccc(O)cc4)cnc3cn2)cc1)N1CCOCC1
- IC50 [1]: 0.125 µM
- IC50 [2]: 0.113 µM
- IC50 [3]: 0.13 µM
- logD [4]: 2.21
- Papp [5]: 502 nm/s
- solubility thermodynamic at 18 h [6]: 0.0115 mg/mL (≈ 28.7 µM)

SMILES: N#Cc1ccc(-c2cnc3ccc(-c4ccc(C(=O)N5CCNCC5)cc4)nn23)cc1
- IC50 [1]: 0.016 µM
- IC50 [2]: 0.026 µM
- IC50 [3]: 0.22 µM
- logD [4]: 2
- Papp [5]: 458 nm/s
- solubility thermodynamic at 18 h [6]: 0.115 mg/mL (≈ 282 µM)
- Papp A→B [7]: 11.3 nm/s
- efflux ratio [8]: 29.9
- IC50 (Cytochrome P450 3A4): 5.6 µM
- half-life at 1 µM (in vitro [9]): > 60 min
- half-life at 1 µM (in vitro [10]): 42 min
